The substances below were run on HL-60 (human acute myeloid leukemia cells) (assay: Evaluation of anti-cancer activity: HL-60 cell survival by modified Mosmann (MTT) method). Details: read-out: IC50 (concentration of inhibitor that inhibits cell growth to 50%), HL-60 cells, 24 hours culture with compound, average of at least three experiments.
Format: cell-based
Description: <Evaluation of Anti-Cancer Activity>
HL-60 (human acute myeloid leukemia cells) as the cancerous cells was cultured under a 5% CO2 atmosphere in a wet incubator at 37° C. in a Roswell Park Memorial Institute medium (RPMI 1640) supplemented with 10% fetal bovine serum and 1% antibiotic and antimycotic.
The cells were washed with PBS and counted. A 1×10^6 cells/mL suspension was then prepared using the same medium. The suspension was added to a sterilized 96-well microplate at a density of 50000 cells per well.
The number of survived cells was then evaluated by a modified Mosmann method (T. Mosmann, J. Immunol. Method (1983) 65, 55-63). That is, a solution of a tetrazolium salt (3,[4,5-dimethylthiazol-2-yl]-2,5-diphenyltetrazolium bromide (MTT)) was added, and the culture was continued for 3 hours under the same conditions. Formazan crystals generated by enzymatic activity of the mitochondria in the cells were dissolved in 0.04 mol HCl/isopropyl alcohol and the absorbance at 595 nm was measured using a microplate reader (Bio-Rad 550). In order to eliminate the background, the absorbance at 630 nm was measured and subtracted from the observed absorbance at 595 nm. […] Note that in calculating the IC50 value, the average of values of at least three experiments conducted under the same conditions was used.
In the case of “Bis((S)-1-((R)-2-(dicyclohexylphosphino)ferrocenyl)ethyldiphenylphosphine)gold(I)chloride [Example 4]”, the IC50 is reported as 9.21 µM. With “Bis((R)-1-((S)-2-(diphenylphosphino)ferrocenyl)ethyldicyclohexylphosphine)gold(I)chloride [Example 2]” the IC50 was 8.69 µM. Substance “Bis((R)-1-((S)-2-(dicyclohexylphosphino)ferrocenyl)ethyldiphenylphosphine)gold(I)chloride [Example 3]” has an IC50 of 7.92 µM. For “bis(1,1′-bis-(diphenylphosphino)-2,2-bis-[(S)-4-sec-butyl-2-yl]ferrocene)digold(I)dichloride [Example 8]”, the IC50 was 3.54 µM. “bis(1,1′-bis-(diphenylphosphino)-2,2-bis-[(S)-4-isopropyl-2-yl]ferrocene)digold(I)dichloride [Example 5]” gave an IC50 of 0.803 µM. Substance “bis(1,1′-bis-(diphenylphosphino)-2,2-bis-[(S)-4-isobutyl-2-yl]ferrocene)digold(I)dichloride [Example 7]” has an IC50 of 2.1 µM. For “Bis((R)-1-((S)-2-(dicyclohexylphosphino)ferrocenyl)ethyldicyclohexylphosphine)gold(I)chloride [Example 1]”, the IC50 was 19.2 µM. “bis(1,1′-bis-(diphenylphosphino)-2,2-bis-[(S)-4-tert-butyl-2-yl]ferrocene)digold(I)dichloride [Example 6]” gave an IC50 of 2.31 µM.
